Data on one molecule can be found in BindingDB's records for doi:10.1021/jm501636x (University of Massachusetts Medical School, 2015).

The assay is described as follows: Inhibition of PAD4 in C57BL/6 mouse bone marrow neutrophils assessed as inhibition of PMA-stimulated neutrophil extracellular trap formation preincubated for 30 mins followed by PMA stimulation measured after 3 to 4 hrs by DNA/neutrophil elastase overlap assay.

SMILES strings stand for the structures.

Usually EC50 stands for the concentration at which the effect is half-maximal. For `CC(C)(C)n1nnc([C@H](CCCNC(=N)CCl)NC(=O)c2ccc(-c3ccccc3)cc2)n1`, the EC50 amounted to 20 µM.
